Measured values taken from ChEMBL document CHEMBL4334450, “Green synthesis, biological evaluation, molecular docking studies and 3D-QSAR analysis of novel phenylalanine linked quinazoline-4(3H)-one-sulphonamide hybrid entities distorting the malarial reductase activity in folate pathway” (Bioorg Med Chem, 2019).
Values after ≈ are worked out from the molar mass of the structure shown. Values belong to the compound of their own block, whether it stands above or below them.

Columns and labels:
Plasmodium falciparum [1] = experiment: Antimalarial activity against Plasmodium falciparum FCR3 infected in human erythrocytes by Giemsa staining analysis; assay type: functional, organism-based
Dihydrofolate reductase = biological target: T1, Dihydrofolate reductase (Bos taurus, UniProt P00376); experiment: Inhibition of bovine liver DHFR using FH2 as substrate incubated for 2 mins followed by substrate addition
T1 sequence (P00376 whole entry): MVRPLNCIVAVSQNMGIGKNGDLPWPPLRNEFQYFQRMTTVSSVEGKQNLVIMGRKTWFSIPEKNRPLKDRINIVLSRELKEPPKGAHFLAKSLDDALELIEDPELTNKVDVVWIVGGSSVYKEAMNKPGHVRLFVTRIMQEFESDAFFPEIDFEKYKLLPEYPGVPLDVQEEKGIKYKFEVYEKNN

Plasmodium falciparum [2] = experiment: Antiplasmodial activity against Plasmodium falciparum infected in human RBC assessed as reduction in parasite LDH activity by spectrophotometric assay; assay type: functional, organism-based
Plasmodium falciparum [3] = experiment: Antiplasmodial activity against Plasmodium falciparum infected in human RBC […] by MTT assay; assay type: functional, organism-based
Erythrocyte = experiment: Cytotoxicity against human RBC assessed as reduction in cell viability by MTT assay; assay type: cell-based
[4] = Therapeutic index, ratio of CC50 for human RBC to EC50 for Plasmodium falciparum infected in human RBC; assay type: toxicity; settings: human red blood cells (RBC), read-out: Ratio CC50/EC50
Vero = experiment: Cytotoxicity against African green monkey Vero cells assessed as reduction in cell viability incubated for 72 hrs by CellTiter 96 Non-radioactive Cell Proliferation Assay; assay type: cell-based; settings: Chlorocebus sabaeus
bovine liver DHFR = experiment: Therapeutic index, ratio of IC50 for African green monkey Vero cells to IC50 for bovine liver DHFR; assay type: toxicity; settings: read-out: Ratio IC50

SMILES: COc1ccc(/C=N/n2c(C(Cc3ccccc3)NS(=O)(=O)c3ccc(NC(C)=O)cc3)nc3ccccc3c2=O)cc1 (centres undefined)
IC50 (Plasmodium falciparum [1]): 0.72 µg/mL (≈ 1.21 µM)

SMILES: CC(=O)Nc1ccc(S(=O)(=O)NC(Cc2ccccc2)c2nc3ccccc3c(=O)n2/N=C/c2ccccc2F)cc1 (centres undefined)
IC50 (Plasmodium falciparum [1]): 1.28 µg/mL (≈ 2.19 µM)

SMILES: CC(=O)Nc1ccc(S(=O)(=O)NC(Cc2ccccc2)c2nc3ccccc3c(=O)n2/N=C/c2ccccc2O)cc1 (centres undefined)
IC50 (Plasmodium falciparum [1]): 0.78 µg/mL (≈ 1.34 µM)

SMILES: CC(=O)Nc1ccc(S(=O)(=O)NC(Cc2ccccc2)c2nc3ccccc3c(=O)n2/N=C/c2ccccc2C)cc1 (centres undefined)
IC50 (Plasmodium falciparum [1]): 1.26 µg/mL (≈ 2.17 µM)

SMILES: CC(=O)Nc1ccc(S(=O)(=O)NC(Cc2ccccc2)c2nc3ccccc3c(=O)n2/N=C/c2ccccc2[N+](=O)[O-])cc1 (centres undefined)
IC50 (Plasmodium falciparum [1]): 1.52 µg/mL (≈ 2.49 µM)

SMILES: CCN(CC)CCCC(C)Nc1ccnc2cc(Cl)ccc12 (centres undefined) [CHLOROQUINE]
EC50 (Plasmodium falciparum [3]): 28.97 ppm | CC50 (Erythrocyte): 466.66 ppm

SMILES: CC(=O)Nc1ccc(S(=O)(=O)NC(Cc2ccccc2)c2nc3ccccc3c(=O)n2/N=C/c2ccc([N+](=O)[O-])cc2)cc1 (centres undefined)
IC50 (Plasmodium falciparum [1]): 0.72 µg/mL (≈ 1.18 µM)

SMILES: CC(=O)Nc1ccc(S(=O)(=O)NC(Cc2ccccc2)c2nc3ccccc3c(=O)n2/N=C/c2ccccc2Br)cc1 (centres undefined)
IC50 (Plasmodium falciparum [1]): 0.7 µg/mL (≈ 1.09 µM)

SMILES: C=C[C@H]1CN2CC[C@H]1C[C@H]2[C@H](O)c1ccnc2ccc(OC)cc12 [QUININE]
IC50 (Plasmodium falciparum [1]): 0.268 µg/mL (≈ 0.826 µM)

SMILES: COc1ccccc1/C=N/n1c(C(Cc2ccccc2)NS(=O)(=O)c2ccc(NC(C)=O)cc2)nc2ccccc2c1=O (centres undefined)
IC50 (Plasmodium falciparum [1]): 1.05 µg/mL (≈ 1.77 µM)

The next lines start with results.

IC50 (Plasmodium falciparum [1]): 0.72 µg/mL (≈ 1.2 µM)
SMILES: CC(=O)Nc1ccc(S(=O)(=O)NC(Cc2ccccc2)c2nc3ccccc3c(=O)n2/N=C/c2ccccc2Cl)cc1 (centres undefined)

IC50 (Plasmodium falciparum [1]): 1.28 µg/mL (≈ 2.26 µM)
SMILES: CC(=O)Nc1ccc(S(=O)(=O)NC(Cc2ccccc2)c2nc3ccccc3c(=O)n2/N=C/c2ccccc2)cc1 (centres undefined)

IC50 (Dihydrofolate reductase): 81.7 nM | IC50 (Plasmodium falciparum [1]): 0.082 µg/mL (≈ 0.137 µM) | IC50 (Plasmodium falciparum [2]): 524.8 ppm
SMILES: CC(=O)Nc1ccc(S(=O)(=O)NC(Cc2ccccc2)c2nc3ccccc3c(=O)n2/N=C/c2cccc(Cl)c2)cc1 (centres undefined)
EC50 (Plasmodium falciparum [3]): 368.97 ppm | CC50 (Erythrocyte): 18850 ppm | selectivity ratio [4]: 51.1 | IC50 (Vero): 15 µg/mL (≈ 25 µM) | selectivity ratio (bovine liver DHFR): 306

IC50 (Plasmodium falciparum [1]): 0.78 µg/mL (≈ 1.35 µM)
SMILES: CC(=O)Nc1ccc(S(=O)(=O)NC(Cc2ccccc2)c2nc3ccccc3c(=O)n2/N=C/c2cccc(C)c2)cc1 (centres undefined)

IC50 (Plasmodium falciparum [1]): 1.01 µg/mL (≈ 1.7 µM)
SMILES: COc1cccc(/C=N/n2c(C(Cc3ccccc3)NS(=O)(=O)c3ccc(NC(C)=O)cc3)nc3ccccc3c2=O)c1 (centres undefined)

IC50 (Plasmodium falciparum [1]): 1.24 µg/mL (≈ 2.13 µM)
SMILES: CC(=O)Nc1ccc(S(=O)(=O)NC(Cc2ccccc2)c2nc3ccccc3c(=O)n2/N=C/c2cccc(O)c2)cc1 (centres undefined)

IC50 (Dihydrofolate reductase): 61.7 nM | IC50 (Plasmodium falciparum [1]): 0.067 µg/mL (≈ 0.115 µM) | IC50 (Plasmodium falciparum [2]): 3402 ppm
SMILES: CC(=O)Nc1ccc(S(=O)(=O)NC(Cc2ccccc2)c2nc3ccccc3c(=O)n2/N=C/c2ccc(F)cc2)cc1 (centres undefined)
EC50 (Plasmodium falciparum [3]): 1909 ppm | CC50 (Erythrocyte): 29330 ppm | selectivity ratio [4]: 15.4 | IC50 (Vero): 15 µg/mL (≈ 25.7 µM) | selectivity ratio (bovine liver DHFR): 417

IC50 (Plasmodium falciparum [1]): 0.68 µg/mL (≈ 1.17 µM)
SMILES: CC(=O)Nc1ccc(S(=O)(=O)NC(Cc2ccccc2)c2nc3ccccc3c(=O)n2/N=C/c2ccc(O)cc2)cc1 (centres undefined)

IC50 (Plasmodium falciparum [1]): 1.12 µg/mL (≈ 1.83 µM)
SMILES: CC(=O)Nc1ccc(S(=O)(=O)NC(Cc2ccccc2)c2nc3ccccc3c(=O)n2/N=C/c2cccc([N+](=O)[O-])c2)cc1 (centres undefined)

IC50 (Dihydrofolate reductase): 49.7 nM | IC50 (Plasmodium falciparum [1]): 0.084 µg/mL (≈ 0.144 µM) | IC50 (Plasmodium falciparum [2]): 4672 ppm
SMILES: CC(=O)Nc1ccc(S(=O)(=O)NC(Cc2ccccc2)c2nc3ccccc3c(=O)n2/N=C/c2cccc(F)c2)cc1 (centres undefined)
EC50 (Plasmodium falciparum [3]): 2831 ppm | CC50 (Erythrocyte): 58408 ppm | selectivity ratio [4]: 20.6 | IC50 (Vero): 15 µg/mL (≈ 25.7 µM) | selectivity ratio (bovine liver DHFR): 517

IC50 (Dihydrofolate reductase): 129 nM | IC50 (Plasmodium falciparum [1]): 0.092 µg/mL (≈ 0.143 µM) | IC50 (Plasmodium falciparum [2]): 96.38 ppm
SMILES: CC(=O)Nc1ccc(S(=O)(=O)NC(Cc2ccccc2)c2nc3ccccc3c(=O)n2/N=C/c2ccc(Br)cc2)cc1 (centres undefined)
EC50 (Plasmodium falciparum [3]): 115.61 ppm | CC50 (Erythrocyte): 10575 ppm | selectivity ratio [4]: 91.5 | IC50 (Vero): 15 µg/mL (≈ 23.3 µM) | selectivity ratio (bovine liver DHFR): 181

IC50 (Plasmodium falciparum [1]): 0.92 µg/mL (≈ 1.43 µM)
SMILES: CC(=O)Nc1ccc(S(=O)(=O)NC(Cc2ccccc2)c2nc3ccccc3c(=O)n2/N=C/c2cccc(Br)c2)cc1 (centres undefined)

IC50 (Dihydrofolate reductase): 94.9 nM | IC50 (Plasmodium falciparum [1]): 0.067 µg/mL (≈ 0.116 µM) | IC50 (Plasmodium falciparum [2]): 8432 ppm
SMILES: CC(=O)Nc1ccc(S(=O)(=O)NC(Cc2ccccc2)c2nc3ccccc3c(=O)n2/N=C/c2ccc(C)cc2)cc1 (centres undefined)
EC50 (Plasmodium falciparum [3]): 1106 ppm | selectivity ratio [4]: 1670 | IC50 (Vero): 15 µg/mL (≈ 25.9 µM) | selectivity ratio (bovine liver DHFR): 273

IC50 (Plasmodium falciparum [1]): 0.84 µg/mL (≈ 1.4 µM)
SMILES: CC(=O)Nc1ccc(S(=O)(=O)NC(Cc2ccccc2)c2nc3ccccc3c(=O)n2/N=C/c2ccc(Cl)cc2)cc1 (centres undefined)
